Like-named read-outs stand apart in the source and are kept apart here.
Key:
[1] = system: PANC1 pancreatic cell line; assay: SRB cytotoxicity assay, PANC1; assay type: cell-based; details: Homo sapiens, PANC-1, 72 h incubation, n = 12, read-out: Cytotoxicity (as of %Control) IC50 value PANC1
Method in brief: (§1)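 SRB colorimetric read-out, expressed as % of control optical density; IC50 derived by regression analysis of dose-response curves. Test substances and a reference drug were applied at 5 to 200 μg/mL, with periodontal ligament fibroblasts as the non-cancer comparator.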

[2] = system: HeLa uterine cervix adenocarcinoma cell line; assay: SRB cytotoxicity assay, HeLa; assay type: cell-based; details: Homo sapiens, 72 h incubation, n = 12, read-out: Cytotoxicity (as of %Control) IC50 value Hela cervix malignancy
Method in brief: as §1

[3] = system: SW480 colorectal cancer cell line; assay: SRB cytotoxicity assay, SW480; assay type: cell-based; details: Homo sapiens, 72 h incubation, n = 12, read-out: Cytotoxicity (as of %Control) IC50 value SW480
Method in brief: as §1

[4] = system: CACO2 colorectal cancer cell line; assay: SRB cytotoxicity assay, CACO2; assay type: cell-based; details: Homo sapiens, Caco-2, 72 h incubation, n = 12, read-out: Cytotoxicity (as of %Control) IC50 value CACO2
Method in brief: as §1

[5] = system: A375 human skin cancer cell line; assay: SRB cytotoxicity assay, A375; assay type: cell-based; details: A-375, 72 h incubation, n = 12, read-out: Cytotoxicity (as of %Control) IC50 value A375 skin melanoma
Method in brief: as §1

[6] = system: Human PC3 prostate cancer cell line; assay: SRB cytotoxicity assay, PC3; assay type: cell-based; details: 72 h incubation, n = 12, read-out: Cytotoxicity (as of %Control) IC50 value PC3 prostate malignancy
Method in brief: as §1

[7] = system: SW620 colorectal cancer cell line; assay: SRB cytotoxicity assay, SW620; assay type: cell-based; details: Homo sapiens, SW-620, 72 h incubation, n = 12, read-out: Cytotoxicity (as of %Control) IC50 value SW620
Method in brief: as §1

[8] = system: HCT116 colorectal cancer cell line; assay: SRB cytotoxicity assay, HCT116; assay type: cell-based; details: Homo sapiens, HCT-116, 72 h incubation, n = 12, read-out: Cytotoxicity (as of %Control) IC50 value HCT116
Method in brief: as §1

[9] = system: Breast cancer cell line MCF7; assay: SRB cytotoxicity assay, MCF7; assay type: cell-based; details: Homo sapiens, 72 h incubation, n = 12, read-out: Cytotoxicity (as of %Control) IC50 value MCF7 mammary malignancy
Method in brief: as §1

[10] = SRB cytotoxicity assay, normal PDL fibroblasts; assay type: cell-based; details: normal periodontal ligament (PDL) fibroblasts, 72 h incubation, 0.1–200 µM range, read-out: Cytotoxicity (as of %Control) IC50 value PDL fibroblasts
Method in brief: as §1

[11] = system: T47D breast cancer cell line; assay: SRB cytotoxicity assay, T47D; assay type: cell-based; details: Homo sapiens, 72 h incubation, n = 12, read-out: Cytotoxicity (as of %Control) IC50 value T47D mammary malignancy
Method in brief: as §1

[12] = system: A549 lung cancer cell line; assay: SRB cytotoxicity assay, A549; assay type: cell-based; details: Homo sapiens, 72 h incubation, n = 12, read-out: Cytotoxicity (as of %Control) IC50 value A549 lung malignancy
Method in brief: as §1

[13] = system: HT-29 colorectal cancer cell line; assay: SRB cytotoxicity assay, HT29; assay type: cell-based; details: Homo sapiens, 72 h incubation, n = 12, read-out: Cytotoxicity (as of %Control) IC50 value HT29
Method in brief: as §1

[14] = target: T1, human recombinant Glo-I enzyme (rhGlo-I) (Homo sapiens, UniProt Q04760); assay: Glyoxalase-I (Glo-I) enzyme inhibition assay; assay type: biochemical
T1 construct: N-terminal Met and 6-His tag (N); purchased R&D Systems; host or cells: E. coli
T1 sequence (Q04760 2-184 limits assumed): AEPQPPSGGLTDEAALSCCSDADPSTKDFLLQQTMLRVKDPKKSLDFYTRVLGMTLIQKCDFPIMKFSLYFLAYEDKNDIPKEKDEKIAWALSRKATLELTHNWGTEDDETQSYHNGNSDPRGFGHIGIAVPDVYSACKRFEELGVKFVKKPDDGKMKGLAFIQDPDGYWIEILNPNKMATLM
Procedure: Solvents and chemicals were procured from Sigma-Aldrich Co. and Acros (ThermoFisher Scientific, New Jersey, USA). […] The enzyme was obtained from R&D Systems® Corporation in the USA. Synthetic compounds were tested for their inhibitory effects on the enzyme using a 10 mM DMSO stock concentration in triplicates. The manufacturer’s protocol from R & D Systems, Inc. in Minneapolis, MN, USA was followed for the in vitro experiments. The reconstituted Glo-I enzyme (0.5 mg/mL) was thawed after being stored at −70°C in sterile deionized water. […] The monitoring was done at a wavelength of 240 nm for 200 seconds at 37°C. The substrate mixture was freshly concocted with a concentration of 100 mM glutathione and 100 mM methylglyoxal (MG) in assay buffer containing 0.5 M sodium phosphate dibasic/monobasic. It was then left undisturbed at room temperature for 15 minutes […]. The selected compounds for investigation are subsequently produced in testing concentration ranges using a 0.1 M solution of sodium phosphate dibasic/monobasic with a pH range of 7–7.2. The blank contained an assay buffer with MG substrate. The test compounds were combined with human recombinant Glo-I (50 µM) in a 96-well plate to determine their kinetic behavior.

[15] = read-out: Trial one (%inhibtion)
[16] = read-out: Trial three (%inhibtion)
[17] = read-out: Trial two (%inhibtion)

SMILES: C[C@]12CC[C@@H]3c4ccc(O)c(O)c4CC[C@H]3[C@@H]1CC[C@@H]2O [4-hydroxy-estradiol]
- IC50 [1]: 66.9 ± 2.69 µM
- IC50 [2]: 29.8 ± 4.74 µM
- IC50 [3]: 109 ± 6.86 µM
- IC50 [4]: 107 ± 4.77 µM
- IC50 [5]: 47.1 ± 1.9 µM
- IC50 [6]: 82.2 ± 8.56 µM
- IC50 [7]: 142 ± 16.5 µM
- IC50 [8]: 124 ± 7.8 µM
- IC50 [9]: 139.8 ± 1.13 µM
- IC50 at 72 h [10]: > 200 µM
- IC50 [11]: 51.5 ± 5.2 µM
- IC50 [12]: 15.2 ± 1.34 µM
- IC50 [13]: 118 ± 4.17 µM
- inhibition at 0.09765 µM [14, 15]: 18%
- inhibition at 0.09765 µM [14, 16]: 20.6%
- inhibition at 0.09765 µM [14, 17]: 21.7%
- inhibition at 0.1953 µM [14, 15]: 57.6%
- inhibition at 0.1953 µM [14, 16]: 59.2%
- inhibition at 0.1953 µM [14, 17]: 55.5%
- inhibition at 0.3906 µM [14, 15]: 69.7%
- inhibition at 0.3906 µM [14, 16]: 66%
- inhibition at 0.3906 µM [14, 17]: 67.1%
- inhibition at 0.7812 µM [14, 15]: 80.8%
- inhibition at 0.7812 µM [14, 16]: 81.3%
- inhibition at 0.7812 µM [14, 17]: 82.9%
- inhibition at 1.562 µM [14, 15]: 99.8%
- inhibition at 1.562 µM [14, 16]: 94%
- inhibition at 1.562 µM [14, 17]: 91.4%
- inhibition at 3.125 µM [14, 15]: 93%
- inhibition at 3.125 µM [14, 16]: 95.6%
- inhibition at 3.125 µM [14, 17]: 96.1%
- inhibition at 6.25 µM [14, 15]: 95.6%
- inhibition at 6.25 µM [14, 16]: 96.1%
- inhibition at 6.25 µM [14, 17]: 97.7%
- inhibition at 12.5 µM [14, 15]: 99.8%
- inhibition at 12.5 µM [14, 16]: 99.3%
- inhibition at 12.5 µM [14, 17]: 98.7%
- inhibition at 25 µM [14, 15]: 102%
- inhibition at 25 µM [14, 16]: 104%
- inhibition at 25 µM [14, 17]: 102%
- inhibition at 50 µM [14, 15]: 102%
- inhibition at 50 µM [14, 16]: 101%
- inhibition at 50 µM [14, 17]: 101%
- Maximum (descriptive statistics of enzyme inhibition) ([14]; highest mean inhibition over the tested concentrations, in % (unit assumed)): 102.5
- IC50 ([14]; human recombinant Glo-I, triplicates, read-out: IC50 µM ± SD): 0.22 µM
- Minimum (descriptive statistics of enzyme inhibition) ([14]; lowest mean inhibition over the tested concentrations, in % (unit assumed)): 20.07

Source: PMC12527173, “Cytotoxic, anti-inflammatory, antioxidant, and anti-glyoxalase-I evaluation of chelating substances: In silico and in vitro study” (PLOS One, 2025)
